Reference: ChEMBL document CHEMBL3797050, “Erinacine S, a Rare Sesterterpene from the Mycelia of Hericium erinaceus” (2016)
The source made the active and inactive calls. The calls are words filed in the database; no cut-off is given here.

Tests used:
[1] = tested on: Mus musculus; test: Increase in nerve growth factor levels in cerebral cortex of APPswe/PSIdeltaE9 double transgenic C57BL/6J mouse at 30 mg/kg/day administered via oral gavage for 30 days; type: functional, organism-based
[2] = tested on: Mus musculus; test: Decrease in amyloid plaque burden in cerebral cortex of APPswe/PSIdeltaE9 double transgenic C57BL/6J mouse at 30 mg/kg/day administered via oral gavage for 30 days by AB10 staining based immunohistochemical assay; type: functional; parameters: scale not given: the % may be the effect or the level left
[3] = tested on: Mus musculus; test: Effect on neprilysin levels in cerebral cortex of APPswe/PSIdeltaE9 double transgenic C57BL/6J mouse at 30 mg/kg/day administered via oral gavage for 30 days by Western blot analysis; type: functional, organism-based
[4] = tested on: Mus musculus; test: Increase in insulin degrading enzyme in cerebral cortex of APPswe/PSIdeltaE9 double transgenic C57BL/6J mouse at 30 mg/kg/day administered via oral gavage for 30 days by Western blot analysis; type: functional

CC(C)C1=C2C3=CC=C(C=O)C[C@H](O[C@@H]4OC[C@@H](O)[C@H](O)[C@H]4O)[C@]3(C)CC[C@@]2(C)CC1
Activity [1]: inactive
Activity [2]: 40.2%
Activity [3]: inactive
Activity [4]: 130.5%

CC(C)C1=C2[C@H]3CCC4=C(O)C(=O)[C@@]5(O)CO[C@H]6O[C@@H]([C@@H]4[C@]65O)[C@]3(C)CC[C@@]2(C)CC1
Activity [1]: inactive
Activity [2]: 38.1%
Activity [3]: inactive
Activity [4]: 141.1%
